Key:
MINK/MINK1 = target: T1, MINK/MINK1 (Homo sapiens, UniProt Q8N4C8); test: Kinase inhibition assay (HotSpot), MINK/MINK1; format: biochemical; conditions: 10 μM ATP, 10-dose IC50 mode; read-out: Compound IC50 (M) MINK/MINK1
T1 construct: purchased Reaction Biology Corp

[1] = target: T2, human recombinant Casein kinase 18 (CK1δ) (Homo sapiens, UniProt P48730); test: Kinase inhibition assay (HotSpot, Reaction Biology Corp), CK1δ; format: biochemical; conditions: 10 μM ATP, 10-dose IC50 mode; read-out: Compound IC50 (M) CK1δ
T2 construct: purchased Reaction Biology Corp

ERBB4/HER4 = target: T3, ERBB4/HER4 (Homo sapiens, UniProt Q15303); test: Kinase inhibition assay (HotSpot), ERBB4/HER4; format: biochemical; conditions: 10 μM ATP, 10-dose IC50 mode; read-out: Compound IC50 (M) ERBB4/HER4
T3 construct: purchased Reaction Biology Corp

[2] = test system: TGF-β-induced IL-11 in primary human parenchymal fibroblast cells (pFbs); test: Human parenchymal fibroblast cell assay, TGF-β-induced IL-11 (ELISA); format: cell-based; conditions: compounds 0.1-10 μM 30 min prior to TGF-β1, 16-24 hours, 4.00* is assigned to compounds that failed to cause 50% or more inhibition at 10 µM, read-out: pIC50 IL-11 suppression (converted)
Protocol: Human Parenchymal Fibroblast Cell Assay
Primary human parenchymal fibroblast cells (pFbs) were cultured from parenchyma of lung resection specimens and from non-transplanted lungs of donors without chronic respiratory disease. pFbs were passaged in Dulbecco's Modified Eagle's Media (DMEM) containing 10% (v/v) heat-inactivated fetal calf serum (FCS), 15 mM HEPES, 0.2% (v/v) sodium bicarbonate, 2 mM L-glutamine, 1% (v/v) non-essential amino acids, 1% (v/v) sodium pyruvate, 2.5 μg/mL amphotericin, 5 IU/mL penicillin and 50 μg/mL streptomycin. In some experiments the human lung fibroblast cell line, MRC5 (sourced from ATTC) was used as indicated. The MRC5 line was maintained under the same conditions as described for the pFb.
Prior to experimentation, pFb were incubated in serum-free DMEM containing 0.25% bovine serum albumin (BSA) and insulin-transferrin-selenium-containing supplement (Monomed A; CSL, Parkville, Melbourne, Australia). The cells were incubated with small molecular CK1δ inhibitors (0.1-10 μM) for 30 min prior to […] TGF-β1 (R&D Systems, Minneapolis, Minn.) and the incubation continued for 16-24 hours prior to harvest of supernatant for detection of immunoreactive IL-11. Stock solutions were made as 10 mM in 100% DMSO and diluted to the required concentration in medium containing 0.1% DMSO (final concentration).
Supernatants were collected for measurement of IL-11 (R&D DuoSet, DY218) by ELISA following the manufacturers' instructions. Generally, capture antibodies were initially diluted to the recommended concentrations using PBS buffer, and then used to coat the wells of 96-well microplates (Greiner, #655061) by adding 50 μL/well and incubated overnight at room temperature. Next day, solutions were discarded and wells were washed 3 times with wash buffer (PBS containing 0.1% (v/v) Tween-20) prior to the addition of 200 μL of blocking solution (PBS containing 1% (v/v) BSA) for 1 hour to block non-specific sites. Plates were then washed 3 times with wash buffer and 50 μL of samples or standards were then added to wells and incubated for 2 hours at room temperature. After the incubation, plates were washed 3 times with wash buffer and 50 μL of detection antibodies were added to wells and incubated for 2 hours at room temperature. Plates were then washed 3 times before adding streptavidin-conjugated horseradish peroxidase (at the recommended concentrations) for 45 min. Plates were then washed 5 times with wash buffer and 100 μL TMB substrate solution (equal parts A and B, BD Biosciences) was added to each well until sufficient signals emerged. The reactions were inactivated by adding 100 μL sulphuric acid (2M H2SO4). The absorbance was measured at 450 nm using the Multiskan Ascent® plate reader. The absorbance of the cytokine standards was fitted to a logistic equation, allowing the concentrations of cytokine in samples to be determined.
PIC50 values (the negative log of the concentration suppressing IL-11 level by 50%) for inhibition of TGF-β-induced IL-11 were interpolated from the linear regression of log concentration small molecule versus IL-11 level (Table 4 and FIG. 2).

T1 sequence (Q8N4C8 whole entry): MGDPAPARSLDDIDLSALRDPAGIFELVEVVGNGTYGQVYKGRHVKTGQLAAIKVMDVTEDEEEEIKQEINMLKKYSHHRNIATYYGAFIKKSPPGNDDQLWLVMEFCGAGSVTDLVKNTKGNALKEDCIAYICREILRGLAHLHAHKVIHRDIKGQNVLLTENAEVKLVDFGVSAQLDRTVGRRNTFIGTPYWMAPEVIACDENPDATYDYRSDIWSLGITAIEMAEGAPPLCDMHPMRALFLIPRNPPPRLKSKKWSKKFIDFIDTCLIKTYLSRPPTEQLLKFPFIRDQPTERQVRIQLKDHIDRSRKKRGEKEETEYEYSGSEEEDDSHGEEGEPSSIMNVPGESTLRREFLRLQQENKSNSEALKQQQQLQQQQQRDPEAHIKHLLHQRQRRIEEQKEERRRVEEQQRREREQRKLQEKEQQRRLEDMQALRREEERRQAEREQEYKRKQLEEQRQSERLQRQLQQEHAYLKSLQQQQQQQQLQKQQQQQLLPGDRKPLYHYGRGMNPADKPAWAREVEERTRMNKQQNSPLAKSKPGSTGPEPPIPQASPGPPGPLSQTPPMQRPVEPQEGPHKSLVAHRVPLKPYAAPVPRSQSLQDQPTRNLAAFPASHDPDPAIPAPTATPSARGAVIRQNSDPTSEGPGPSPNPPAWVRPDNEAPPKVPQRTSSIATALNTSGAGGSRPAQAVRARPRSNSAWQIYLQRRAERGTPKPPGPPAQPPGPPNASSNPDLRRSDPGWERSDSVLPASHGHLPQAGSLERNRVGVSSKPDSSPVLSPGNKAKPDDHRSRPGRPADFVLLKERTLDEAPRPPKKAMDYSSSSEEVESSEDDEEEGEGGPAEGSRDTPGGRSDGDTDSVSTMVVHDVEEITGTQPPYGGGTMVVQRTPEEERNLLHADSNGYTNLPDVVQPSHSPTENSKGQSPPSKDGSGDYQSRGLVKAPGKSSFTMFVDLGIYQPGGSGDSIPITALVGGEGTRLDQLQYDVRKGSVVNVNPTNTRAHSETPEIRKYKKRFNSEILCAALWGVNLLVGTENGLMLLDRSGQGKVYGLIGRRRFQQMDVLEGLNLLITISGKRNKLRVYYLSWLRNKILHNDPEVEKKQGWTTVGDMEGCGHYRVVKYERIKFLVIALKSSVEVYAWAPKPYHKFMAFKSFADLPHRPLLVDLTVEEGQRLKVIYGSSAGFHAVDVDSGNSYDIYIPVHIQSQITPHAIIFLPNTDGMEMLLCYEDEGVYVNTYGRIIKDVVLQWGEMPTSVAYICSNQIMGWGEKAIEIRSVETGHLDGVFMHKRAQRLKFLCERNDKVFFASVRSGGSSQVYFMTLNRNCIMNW
T3 sequence (Q15303 26-1308): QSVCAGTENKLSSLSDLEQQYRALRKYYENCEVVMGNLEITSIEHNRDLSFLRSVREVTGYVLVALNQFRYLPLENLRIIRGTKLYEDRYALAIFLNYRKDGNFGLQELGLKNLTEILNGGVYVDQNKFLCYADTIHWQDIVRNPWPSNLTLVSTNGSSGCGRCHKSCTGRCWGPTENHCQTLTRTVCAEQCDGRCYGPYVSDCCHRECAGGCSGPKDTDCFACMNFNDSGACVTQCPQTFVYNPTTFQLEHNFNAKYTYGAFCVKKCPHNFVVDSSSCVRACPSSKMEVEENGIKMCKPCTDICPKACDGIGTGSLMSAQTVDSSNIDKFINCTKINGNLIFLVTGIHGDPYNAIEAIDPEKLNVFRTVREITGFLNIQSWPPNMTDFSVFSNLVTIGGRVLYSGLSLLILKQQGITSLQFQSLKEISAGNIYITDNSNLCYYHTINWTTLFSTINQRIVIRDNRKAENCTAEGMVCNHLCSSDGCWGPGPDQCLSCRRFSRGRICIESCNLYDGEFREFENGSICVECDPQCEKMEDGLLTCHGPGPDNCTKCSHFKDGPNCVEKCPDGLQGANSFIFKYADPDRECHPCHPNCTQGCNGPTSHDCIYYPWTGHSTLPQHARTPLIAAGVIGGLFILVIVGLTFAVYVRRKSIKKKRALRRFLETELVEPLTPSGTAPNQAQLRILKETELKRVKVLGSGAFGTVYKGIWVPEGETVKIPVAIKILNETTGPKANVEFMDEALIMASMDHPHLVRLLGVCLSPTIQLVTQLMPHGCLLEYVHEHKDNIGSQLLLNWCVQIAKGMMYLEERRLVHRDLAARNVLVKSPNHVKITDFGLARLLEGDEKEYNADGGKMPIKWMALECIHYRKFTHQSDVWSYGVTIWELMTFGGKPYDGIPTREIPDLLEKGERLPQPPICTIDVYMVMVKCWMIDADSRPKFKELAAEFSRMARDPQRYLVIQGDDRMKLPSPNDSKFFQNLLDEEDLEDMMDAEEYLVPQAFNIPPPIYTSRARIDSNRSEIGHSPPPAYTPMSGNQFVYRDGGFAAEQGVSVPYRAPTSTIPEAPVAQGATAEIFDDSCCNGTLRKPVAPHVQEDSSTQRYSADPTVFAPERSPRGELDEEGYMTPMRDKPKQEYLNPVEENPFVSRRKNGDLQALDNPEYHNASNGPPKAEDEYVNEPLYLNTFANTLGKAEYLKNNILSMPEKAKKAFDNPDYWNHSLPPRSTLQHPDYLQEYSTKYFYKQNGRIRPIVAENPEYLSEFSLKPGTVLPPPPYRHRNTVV
T2 sequence (P48730 whole entry): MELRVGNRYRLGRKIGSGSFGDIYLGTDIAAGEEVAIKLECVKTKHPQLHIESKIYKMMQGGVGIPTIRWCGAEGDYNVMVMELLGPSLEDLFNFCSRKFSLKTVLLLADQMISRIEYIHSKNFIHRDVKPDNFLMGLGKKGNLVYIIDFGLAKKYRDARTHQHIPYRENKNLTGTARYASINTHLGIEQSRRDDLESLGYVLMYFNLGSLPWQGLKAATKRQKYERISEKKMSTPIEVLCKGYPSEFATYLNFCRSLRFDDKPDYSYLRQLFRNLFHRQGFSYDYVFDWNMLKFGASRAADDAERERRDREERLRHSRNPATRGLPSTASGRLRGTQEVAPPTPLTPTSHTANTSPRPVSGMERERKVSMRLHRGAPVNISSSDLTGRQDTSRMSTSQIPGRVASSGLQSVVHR

| SMILES | IC50 (MINK/MINK1) [M] | IC50 [1] [M] | IC50 (ERBB4/HER4) [M] | IC50 [2] [nM] |
| --- | --- | --- | --- | --- |
| Fc1ccc(-c2ncn(C3CCCCC3)c2-c2ccnc(NC3CCCC3)n2)cc1 [ZH2-46, 4-(1-Cyclohexyl-4-(4-fluorophenyl)-1H-imidazol-5-yl)-N-cyclopentylpyrimidin-2-amine] | 6.69e-08 | 4.99e-09 | 9.01e-06 | – |
| Fc1ccc(-c2ncn(C3CCCCC3)c2-c2ccnc(NC3CCOCC3)n2)cc1 [ZH2-54, 4-(1-Cyclohexyl-4-(4-fluorophenyl)-1H-imidazol-5-yl)-N-(tetrahydro-2H-pyran-4-yl)pyrimidin-2-amine] | 1.7e-07 | 1.73e-09 | – | 4370 |
| Fc1ccc(-c2ncn(C3CCCCC3)c2-c2ccnc(NC3CCCCC3)n2)cc1 [ZH2-58, N-Cyclohexyl-4-(1-cyclohexyl-4-(4-fluorophenyl)-1H-imidazol-5-yl)pyrimidin-2-amine] | 2.36e-07 | 1.95e-08 | > 1e-05 | 29500 |
| CCNc1nccc(-c2c(-c3ccc(F)cc3)ncn2C2CCCCC2)n1 [ZH2-78, 4-(1-Cyclohexyl-4-(4-fluorophenyl)-1H-imidazol-5-yl)-N-ethylpyrimidin-2-amine] | 2.26e-08 | 4.7e-09 | 7.5e-07 | 295 |
| Fc1ccc(-c2ncn(C3CCCCC3)c2-c2ccnc(NCc3cccc(F)c3)n2)cc1 [ZH2-114, 4-(1-Cyclohexyl-4-(4-fluorophenyl)-1H-imidazol-5-yl)-N-(3-fluorobenzyl)pyrimidin-2-amine] | 3.33e-08 | 3.67e-09 | – | – |
| Fc1ccc(-c2ncn(C3CCCCC3)c2-c2ccnc(NCc3ccccc3F)n2)cc1 [ZH2-118, 4-(1-Cyclohexyl-4-(4-fluorophenyl)-1H-imidazol-5-yl)-N-(2-fluorobenzyl)pyrimidin-2-amine] | 4.21e-08 | 9.6e-09 | 3.66e-06 | 1450 |
| Fc1ccc(CNc2nccc(-c3c(-c4ccc(F)cc4)ncn3C3CCCCC3)n2)cc1 [ZH2-122, 4-(1-Cyclohexyl-4-(4-fluorophenyl)-1H-imidazol-5-yl)-N-(4-fluorobenzyl)pyrimidin-2-amine] | 1.95e-08 | 5.07e-09 | – | 2450 |
| Fc1ccc(-c2ncn(C3CCCCC3)c2-c2ccnc(NC3CCC(F)(F)CC3)n2)cc1 [ZH2-146, 4-(1-Cyclohexyl-4-(4-fluorophenyl)-1H-imidazol-5-yl)-N-(4,4-difluorocyclohexyl)pyrimidin-2-amine] | 1.1e-07 | 4.93e-09 | – | 11500 |
| O[C@H]1C[C@H](Nc2nccc(-c3c(-c4ccc(F)cc4)ncn3C3CCCCC3)n2)C1 [ZH3-50, trans-3-((4-(1-Cyclohexyl-4-(4-fluorophenyl)-1H-imidazol-5-yl)pyrimidin-2-yl)amino)cyclobutan-1-ol] | 1.73e-08 | 1.36e-09 | 4.41e-06 | 417 |
| Nc1nccc(-c2c(-c3ccc(F)cc3)ncn2C2CCCC2)n1 [ZH3-58, 4-(1-Cyclopentyl-4-(4-fluorophenyl)-1H-imidazol-5-yl)pyrimidin-2-amine] | 2.17e-07 | 8.33e-09 | 1.39e-06 | 550 |
| O[C@H]1C[C@@H](Nc2nccc(-c3c(-c4ccc(F)cc4)ncn3C3CCCCC3)n2)C1 [ZH3-62, cis-3-((4-(1-Cyclohexyl-4-(4-fluorophenyl)-1H-imidazol-5-yl)pyrimidin-2-yl)amino)cyclobutan-1-ol] | 7.53e-09 | 1.31e-09 | > 1e-05 | 1000 |
| Fc1ccc(-c2ncn(C3CCCCC3)c2-c2ccnc(NC3CC(F)(F)C3)n2)cc1 [ZH3-70, 4-(1-Cyclohexyl-4-(4-fluorophenyl)-1H-imidazol-5-yl)-N-(3,3-difluorocyclobutyl)pyrimidin-2-amine] | 2.16e-08 | 1e-09 | – | – |
| CC(C)(C)Cn1cnc(-c2ccc(F)cc2)c1-c1ccnc(N)n1 [ZH3-78, 4-(4-(4-Fluorophenyl)-1-neopentyl-1H-imidazol-5-yl)pyrimidin-2-amine] | 8.09e-07 | 5.93e-08 | 8.35e-06 | 8510 |
| Fc1ccc(-c2ncn(C3CCCCC3)c2-c2ccnc(NC3CC3)n2)cc1 [ZH3-86, 4-(1-Cyclohexyl-4-(4-fluorophenyl)-1H-imidazol-5-yl)-N-cyclopropylpyrimidin-2-amine] | 1.06e-08 | 7.59e-09 | 1.48e-06 | 339 |
| Fc1ccc(-c2ncn(CC3CCCCC3)c2-c2ccnc(NC3COC3)n2)cc1 [ZH3-114, 4-(1-(Cyclohexylmethyl)-4-(4-fluorophenyl)-1H-imidazol-5-yl)-N-(oxetan-3-yl)pyrimidin-2-amine] | 9.44e-08 | 1.17e-09 | 3e-06 | 10500 |
| OCCNc1nccc(-c2c(-c3ccc(F)cc3)ncn2CC2CCCCC2)n1 [ZH3-118, 2-((4-(1-(Cyclohexylmethyl)-4-(4-fluorophenyl)-1H-imidazol-5-yl)pyrimidin-2-yl)amino)ethan-1-ol] | 1.97e-07 | 2.13e-09 | 5.13e-07 | 8320 |
| CCn1cnc(-c2ccc(F)cc2)c1-c1ccnc(NC2CCC2)n1 [ZH3-122, N-Cyclobutyl-4-(1-ethyl-4-(4-fluorophenyl)-1H-imidazol-5-yl)pyrimidin-2-amine] | 1.83e-08 | 4.16e-09 | 4.42e-06 | 178 |
| Nc1nccc(-c2c(-c3ccc(F)cc3)ncn2CC2CCC(F)(F)CC2)n1 [ZH3-130, 4-(1-((4,4-Difluorocyclohexyl)methyl)-4-(4-fluorophenyl)-1H-imidazol-5-yl)pyrimidin-2-amine] | 8.9e-07 | 6.13e-09 | 1.42e-06 | 832 |
| O=S1(=O)CCC(Nc2nccc(-c3c(-c4ccc(F)cc4)ncn3C3CCCCC3)n2)CC1 [ZH3-134, 4-((4-(1-Cyclohexyl-4-(4-fluorophenyl)-1H-imidazol-5-yl)pyrimidin-2-yl)amino)tetrahydro-2H-thiopyran 1,1-dioxide] | 3.77e-08 | 1.15e-09 | – | – |
